Source: patent publication US11781984B2, “Fluorescent method to quantify copper or platinum based on catalysis” (University of Pittsburgh—Of the Commonwealth System of …, priority 2018, dated 2023)
Structures can show the parent of a compound that is named as a salt.

Tests used:
[1] = Depropargylation of PPE with various metals and ligands (combinatorial screen); conditions: Cu^+ and Cu^2+ in the presence of ligand, 1.2 M pH 7.0 phosphate buffer/DMSO
Description: All fluorescence measurements were obtained using a Modulus II Microplate Multimode Reader. Fluorescence was measured after exciting samples with 490 nm light and emission was measured between 510-570 nm. All fluorescence measurements were obtained at room temperature. Metals and ligands were combinatorially screened in the presence of Propargyl Pittsburgh Green ether (PPE) to determine which metals and ligands facilitated the depropargylation reaction. Solid AgNO3 and Sr(NO3)2 were dissolved in 5% HNO3 (TraceMetal Grade) to a final concentration of 10 mM. AuCl3, CdCl2, CeCl3, COCl2, CuCl, CuCl2, […]7, FeSO4, FeCl3, HgCl2, MgCl2, KMnO4 NiCl2, Pb(OAc)4, Rh(OAc)2, RhCl3, RuCl3, and ZnCl2 were dissolved in 3% HCl (TraceMetal Grade) to a final concentration of 10 mM. Wilkinson's catalyst, as a source of Rh(I), was dissolved in DMSO to a final concentration of 5 mM. RuCl2(p-cymene) dimer was dissolved in DMSO to a final concentration of 5 mM (10 mM with respect to the monomer). Standard solutions of 1000 ppm Pt^2+ in 3% HCl and 1000 ppm Pd^2+ in 5% HNO3 were used. […] A mixture containing 1.2 M pH 7.0 phosphate buffer (177.2 mL), DMSO (19.42 mL), and 8.0 mM PPE (556 μL) was separated into 37 aliquots. […] These solutions containing the probe and ligand (180 μL), termed working solutions, were transferred to a black 96-well plate. The metal solutions were diluted to 10 μM using ultrapure water as the diluent. […] To analyze the data, each working solution was normalized, with the no metal sample normalized to 1.

[2] = Distribution of copper between water and CHCl3 in the presence of DMAPPP; type: physicochemical; conditions: pH 7 buffer / CHCl3 biphasic system, DMAPPP present vs absent
Description: We questioned whether copper ions would be excreted from cells when bound to DMAPPP. As a model system, CuSO4 was suspended in a biphasic system (pH 7 buffer and CHCl3) in the presence or absence of DMAPPP. Three suspensions were prepared from these: 10 mM DMAPPP in CHCl3 (1.0 mL) and 5 mM CuSO4 in 1 mM phosphate pH 7.0 buffer (1.0 mL), CHCl3 (1.0 mL) and 5 mM CuSO4 in 1 mM phosphate pH 7.0 buffer (1.0 mL), and 10 mM DMAPPP in CHCl3 (1.0 mL) and 1 mM phosphate pH 7.0 buffer (1.0 mL). The suspensions were vortexed to ensure proper partitioning of the CuSO4 and DMAPPP. Aliquots of the aqueous and organic layers of each suspension (100 μL each) were then taken and evaporated. The residue following evaporation was resuspended in HBSS (100 μL).
The working solution was prepared by the addition of 50 mM pH 8.5 borate buffer (2.96 mL), EtOH (500 μL), 800 μM PPE in EtOH (100 μL), and 10 mM DMAPPP in DMSO (40 μL). The working solution (180 μL) was transferred to the wells of a black 96-well plate. The resuspended samples (20 μL) were then added to the wells and the fluorescence was measured.

[3] = Deallylation of APE with various metals and ligands (combinatorial screen); conditions: for facilitation of the deallylation of APE: ligand screen with APE
Description: In separate vials, 20-30 mg of each ligand was dissolved in DMSO containing 250 ppm butylated hydroxyl toluene (BHT) to a final concentration of 20 mM ligand. Working solutions containing the ligands were prepared by mixing 1.23 M pH 7 phosphate buffer (177.2 mL), DMSO (19.424 mL), and 8.0 mM APE in DMSO (556 μL). Aliquots of this mixture (4.944 mL) were placed into 15 mL conical tubes and 20 mM ligands and 250 ppm BHT in DMSO (55.5 μL) were added. […] Metals used in the experiments included AgNO3, AuCl3, CdCl2.2.5H2O, CeCsl3.3H2O, CoCl2.6H2O, […]7, CuCl, CuCl2.2H2O, FeSO4, FeCl3, HgCl2, MgCl2.6H2O, K2MnO4, NiCl2, Pb(OAc)2, RhCl(PPh3)3, Rh(Oac)2 dimer, […] (45.5% Rh), dichloro(p-cymene)ruthenium(II), RuCl3, Sr(NO3)2, and ZnCl2. In separate vials, 10 mM metal solutions were prepared by mixing 5-20 mg of the listed metals with dilute acid; all metals were dissolved in 3% HCl (TraceMetal Grade), with the exception of AgNO3, Sr(NO3)3, RhCl(PPh3)3, and dichloro(p-cymene)ruthenium(II). AgNO3 and Sr(NO3)3 were dissolved in 5% HNO3 (TraceMetal Grade); RhCl(PPh3)3 and dichloro(p-cymene)ruthenium(II) were dissolved in DMSO and the working solutions were adjusted to account for the solvent. The metal solutions were then diluted to 100 μM in 3% HCl or 5% HNO3 (TraceMetal Grade) or DMSO. […] For Pd, the 9.4 mM standard (21 μL) was added to 5% HNO3 (1.98 mL, TraceMetal Grade). For Pt, the 5.1 mM standard (39 μL) was added to 3% HCl (1.96 mL, TraceMetal Grade). To perform the assay, 10 μM metal solutions (20 μL) were added to the prepared working solutions (180 μL). The fluorescence was measured immediately and again after allowing the reaction to proceed for 1 h and 2 h at 25° C.

[4] = Selectivity of optimized APE/TFPP method for platinum over palladium; conditions: optimized salts, pH and TFPP concentration; 10 μM metals, 20 μM APE, 200 μM TFPP, pH 7.8
Description: FIG. 21: Relative reactivities of metals (10 μM) to APE with TFPP. 20 μM APE, 200 μM TFPP, pH 7.8, 25° C., 10 min, n=3.
Increased temperatures accelerated the deallylation, opening an avenue for even lower detection limits if necessary.

[5] = Reactivity of strongly-ligated platinum drugs with APE and TFPP; conditions: 10 μM drug, 45° C., 1 h
Description: We incubated carboplatin and oxaliplatin with APE and TFPP. […] Carboplatin and oxaliplatin were dissolved in DMSO. The solutions were diluted to a concentration of 100 μM in DMSO. 100 μM platinum drugs in DMSO or water (20 μL) were transferred to the wells of a black 96-well plate. The working solution was prepared by the addition of 1.2 M phosphate pH 7.8 buffer (17.60 mL), DMSO (1.43 mL), 800 μM APE in DMSO (550 μL), and 40 mM TFPP in 250 ppm BHT in DMSO (220 μL). The working solution (180 μL) was then transferred to the wells and the initial fluorescence was measured. The plate was then covered and allowed to incubate in a 45° C. oven for 1 h before the fluorescence was measured again.

[6] = Reactivity of platinum drugs after pre-incubation with LiCl or NaCl; conditions: 10 μM drug, 50 mM LiCl or NaCl, 20 μM APE, 400 μM TFPP, 25° C., 100 min
Description: We pre-incubated the drugs with either LiCl or NaCl before adding APE and TFPP.0 or 100 μM cisplatin, carboplatin, or oxaliplatin in DMSO (100 μL) were added to centrifuge tubes. To these tubes, 0 or 1 M LiCl or NaCl in water (100 μL) was added. The solutions were then allowed to incubate at room temperature for 4 h. The working solution was made by the addition of 1.2 M phosphate pH 7.8 buffer (8.86 mL), DMSO (721 μL), 800 μM APE in DMSO (278 μL), and 20 mM TFPP in 250 ppm BHT in DMSO (111 μL). The working solution (180 μL) was then transferred to the wells of a black 96-well plate. The platinum drugs (20 μL) were then transferred to the wells and the fluorescence was measured every 5 min for 100 min.

[7] = Detection of platinum in different oxidation states (APE/TFPP); conditions: APE and TFPP, 25° C.
Description: To determine whether our method depends on the oxidation state of platinum, we incubated the solution of APE and TFPP with a platinum(II) standard, K2PtCl4, K2PtCl6, or cisplatin for 10 min. Cisplatin (6.1 mg; 20 μmol) was dissolved in DMSO and diluted to a concentration of 10 μM. K2PtCl4 (5.6 mg; 13 μmol) and K2PtCl6 (6.8 mg; 14 μmol) were dissolved in water to a concentration of 10 μM. The Pt standard was diluted with ultrapure water to a concentration of 10 μM. The working solution was prepared by adding 1.2 M pH 7 phosphate buffer (8.86 mL), 800 μM APE in DMSO (278 μL), 20 mM TFPP and 250 ppm BHT in DMSO (111 μL), and DMSO (721 μL) in a 15-mL conical tube. The working solution (180 μL) and the Pt solutions (20 μL) were transferred in this order to black round-bottom 96-well plates. The reaction mixture was incubated at 25° C. for 1 h before the fluorescence was measured and reported. Average values and standard deviations are shown in FIG. 23 and “no Pt” is normalized to 1.

HeLa cells = experiment: Fluorescence imaging of platinum in live HeLa cells; type: cell-based; conditions: 1 μM APE, 200 μM TFPP, 1 mM K2PtCl4, 20 min
Description: We then applied this method for cellular imaging. HeLa cells were seeded in 35-mm dishes and were incubated overnight in an incubator (37° C., 5% CO2 atmosphere) in DMEM supplemented with 10% bovine calf serum and 1% penicillin/streptomycin. Cells were loaded with APE and TFPP to a final concentration of 1 μM and 200 μM, respectively, in 1% DMSO in DMEM for 20 min. Following this, cells were washed twice with ˜2 mL HBSS. HBSS was used as the imaging medium. Brightfield images were taken, as well as the initial fluorescence image. Immediately after taking the first fluorescence image, a solution of K2PtCl4 in PBS was added to a final concentration of 1 mM.
Cellular images were taken using an Olympus IX81 microscope with a 10× objective. Brightfield images were taken using a 3 ms exposure. Fluorescence images were taken as a time series, with an image taken every 30 s for 20 min, using an 850 ms exposure. Images were processed using ImageJ software; background fluorescence was removed from the fluorescence images using a rolling ball radius of 50.0 pixels.

[8] = Pt^2+ and APE in the presence of ligand

Q: Which “fluorescence signals (depropargylation of PPE)” value (shortened to “fluorescence signals”) [1] does the source give for `O=S(=O)([O-])c1cccc(P(c2ccccc2)c2ccccc2)c1.[Na+]` [Compound 2, 3-(diphenylphosphino)bezenesulfonic acid sodium salt] here?
A: significantly increased the fluorescence signals

Q: With `CN(C)c1ccc(P(c2ccccc2)c2ccccc2)cc1` [Compound 9, 4-(dimethylamino)phenyl-diphenylphosphine] as the molecule, how does the “fluorescence signals” value [1] read?
A: greatly increased the fluorescence signals

Q: What about the “copper concentration in the organic phase” value [2] of the same molecule?
A: did not increase

Q: With `O=S(=O)(O)c1cccc(P(c2cc(C(F)(F)F)cc(C(F)(F)F)c2)c2cccc(S(=O)(=O)O)c2)c1` [Compound 12, bis(3-sulfonatophenyl)(3,5-di-trifluoromethylphenyl)phosphine disodium salt] as the molecule, how does the “facilitation of the deallylation of APE” value [3] read?
A: facilitated the deallylation

Q: With `Fc1ccc(P(c2ccc(F)cc2)c2ccc(F)cc2)cc1` [Compound 13, tris(4-fluorophenyl)phosphine] as the molecule, how does the “selectivity for platinum over palladium” value [4] read?
A: 14 times

Q: And the “rate relative to previously reported Pt-Ph3P catalysis” value ([3]; 200 μM TFPP)?
A: 4 times

Q: And the “fluorescence signal relative to background signal” value [3, 8]?
A: 40 fold

Q: What about the “fluorescence signal relative to the corresponding signal from Pd^2+” value [3, 8] of the same molecule?
A: 10 fold

Q: What about the “facilitation of the deallylation of APE” value [3] of the same molecule?
A: facilitated the deallylation

Q: For `COc1ccc(P(c2ccc(OC)cc2)c2ccc(OC)cc2)cc1` [Compound 15, tris(4-methoxyphenyl)phosphine], which “facilitation of the deallylation of APE” value [3] is on record?
A: did not facilitate the deallylation

Q: What about the “fluorescence signals” value [1] of the same molecule?
A: significantly increased the fluorescence signals

Q: What does the source list for `Cc1ccc(P(c2ccc(C)cc2)c2ccc(C)cc2)cc1` [Compound 18, tri-p-tolylphosphine]?
A: facilitation of the deallylation of APE [3]: facilitated the deallylation; fluorescence signals (depropargylation of PPE) [1]: significantly increased the fluorescence signals

Q: Which “facilitation of the deallylation of APE” value [3] does the source give for `FC(F)(F)c1ccc(P(c2ccc(C(F)(F)F)cc2)c2ccc(C(F)(F)F)cc2)cc1` [Compound 19, tris(4-trifluoromethylphenyl)phosphine] here?
A: did not facilitate the deallylation

Q: With `c1ccc(P(c2ccccc2)c2ccccc2)cc1` [Compound 34, triphenylphosphine] as the molecule, how does the “fluorescence signals” value [1] read?
A: significantly increased the fluorescence signals

Q: Which “reaction with APE and TFPP compared to no platinum” value [5] does the source give for `N.N.O=C([O-])C1(C(=O)[O-])CCC1.[Pt+2]` [carboplatin] here?
A: little reaction

Q: And the “effect of pre-incubation with LiCl or NaCl on detection” value (shortened to “effect of pre-incubation”) [6]?
A: increased fluorescence

Q: For `N.N.[Cl][Pt][Cl]` [cisplatin], which “reactivity of platinum species (fluorescence signal)” value [7] is on record?
A: exhibited reactivity, although it was lower than the inorganic species

Q: What about the “effect of pre-incubation” value [6] of the same molecule?
A: did not improve the detection

Q: With `O=C1[O][Pt]2([NH][C@@H]3CCCC[C@H]3[NH]2)[O]C1=O` [oxaliplatin] as the molecule, how does the “reaction with APE and TFPP compared to no platinum” value [5] read?
A: little reaction

Q: What about the “effect of pre-incubation” value [6] of the same molecule?
A: did not improve the detection

Q: With allyl Pittsburgh Green ether [APE] as the molecule, how does the “increase of fluorescence intensity in cells” value (HeLa cells) read?
A: 1.5 fold
